Publication PMC3914206

What was measured:
Assay in all cases: KiNativ chemical proteomics profiling in HeLa and PC3 cell lysates
Assay type in all cases: binding
[1] = molecular target: T1, selected panels of kinases in HeLa and PC3 cell lysates (Homo sapiens, UniProt O60674); conditions: 10 uM; proteome HEL; peptide IGDFGLTk[…]; labeling site Activation Loop
T1 construct: endogenous in cells; host or cells: HeLa and PC3 cell lysates

[2] = molecular target: T2, selected panels of kinases in HeLa and PC3 cell lysates (Homo sapiens, UniProt O94921); conditions: 10 uM; PFTAIRE1; peptide LVALkVIR; proteome PC3; labeling site Lys1
T2 construct: endogenous in cells; host or cells: HeLa and PC3 cell lysates

[3] = molecular target: T3, selected panels of kinases in HeLa and PC3 cell lysates (Homo sapiens, UniProt P20594); conditions: 10 uM; proteome PC3; peptide […]k[…]; labeling site Lys2
T3 construct: endogenous in cells; host or cells: HeLa and PC3 cell lysates

[4] = molecular target: T4, selected panels of kinases in HeLa and PC3 cell lysates (Homo sapiens, UniProt P21127); conditions: 10 uM; PITSLRE; peptide DLk[…]; proteome PC3; labeling site Lys2
T4 construct: endogenous in cells; host or cells: HeLa and PC3 cell lysates

[5] = molecular target: T5, selected panels of kinases in HeLa and PC3 cell lysates (Homo sapiens, UniProt P42680); conditions: 10 uM; TEC; peptide […]kFPVK; proteome HEL; labeling site Activation Loop
T5 construct: endogenous in cells; host or cells: HeLa and PC3 cell lysates
T5 sequence (P42680 whole entry): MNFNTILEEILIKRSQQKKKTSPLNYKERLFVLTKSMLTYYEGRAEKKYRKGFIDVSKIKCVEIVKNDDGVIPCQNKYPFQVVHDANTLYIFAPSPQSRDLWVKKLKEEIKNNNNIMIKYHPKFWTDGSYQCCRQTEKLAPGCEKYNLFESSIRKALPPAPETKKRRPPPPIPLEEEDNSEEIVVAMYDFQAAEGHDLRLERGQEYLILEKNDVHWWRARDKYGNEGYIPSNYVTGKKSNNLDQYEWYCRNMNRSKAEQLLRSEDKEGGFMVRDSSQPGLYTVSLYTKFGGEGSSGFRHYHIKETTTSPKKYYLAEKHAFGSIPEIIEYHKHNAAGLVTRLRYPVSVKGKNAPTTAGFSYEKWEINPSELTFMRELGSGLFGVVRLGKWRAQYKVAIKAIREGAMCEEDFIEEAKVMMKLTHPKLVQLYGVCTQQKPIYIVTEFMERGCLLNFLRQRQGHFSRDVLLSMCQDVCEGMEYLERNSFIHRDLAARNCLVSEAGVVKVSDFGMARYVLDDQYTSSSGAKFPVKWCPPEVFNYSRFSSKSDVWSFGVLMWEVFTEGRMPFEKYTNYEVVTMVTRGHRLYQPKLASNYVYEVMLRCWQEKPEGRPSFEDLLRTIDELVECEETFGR

[6] = molecular target: T6, selected panels of kinases in HeLa and PC3 cell lysates (Homo sapiens, UniProt P48736); conditions: 10 uM; PIK3CG; peptide KkPLWLEFK; proteome HEL; labeling site ATP
T6 construct: endogenous in cells; host or cells: HeLa and PC3 cell lysates
T6 sequence (P48736 whole entry): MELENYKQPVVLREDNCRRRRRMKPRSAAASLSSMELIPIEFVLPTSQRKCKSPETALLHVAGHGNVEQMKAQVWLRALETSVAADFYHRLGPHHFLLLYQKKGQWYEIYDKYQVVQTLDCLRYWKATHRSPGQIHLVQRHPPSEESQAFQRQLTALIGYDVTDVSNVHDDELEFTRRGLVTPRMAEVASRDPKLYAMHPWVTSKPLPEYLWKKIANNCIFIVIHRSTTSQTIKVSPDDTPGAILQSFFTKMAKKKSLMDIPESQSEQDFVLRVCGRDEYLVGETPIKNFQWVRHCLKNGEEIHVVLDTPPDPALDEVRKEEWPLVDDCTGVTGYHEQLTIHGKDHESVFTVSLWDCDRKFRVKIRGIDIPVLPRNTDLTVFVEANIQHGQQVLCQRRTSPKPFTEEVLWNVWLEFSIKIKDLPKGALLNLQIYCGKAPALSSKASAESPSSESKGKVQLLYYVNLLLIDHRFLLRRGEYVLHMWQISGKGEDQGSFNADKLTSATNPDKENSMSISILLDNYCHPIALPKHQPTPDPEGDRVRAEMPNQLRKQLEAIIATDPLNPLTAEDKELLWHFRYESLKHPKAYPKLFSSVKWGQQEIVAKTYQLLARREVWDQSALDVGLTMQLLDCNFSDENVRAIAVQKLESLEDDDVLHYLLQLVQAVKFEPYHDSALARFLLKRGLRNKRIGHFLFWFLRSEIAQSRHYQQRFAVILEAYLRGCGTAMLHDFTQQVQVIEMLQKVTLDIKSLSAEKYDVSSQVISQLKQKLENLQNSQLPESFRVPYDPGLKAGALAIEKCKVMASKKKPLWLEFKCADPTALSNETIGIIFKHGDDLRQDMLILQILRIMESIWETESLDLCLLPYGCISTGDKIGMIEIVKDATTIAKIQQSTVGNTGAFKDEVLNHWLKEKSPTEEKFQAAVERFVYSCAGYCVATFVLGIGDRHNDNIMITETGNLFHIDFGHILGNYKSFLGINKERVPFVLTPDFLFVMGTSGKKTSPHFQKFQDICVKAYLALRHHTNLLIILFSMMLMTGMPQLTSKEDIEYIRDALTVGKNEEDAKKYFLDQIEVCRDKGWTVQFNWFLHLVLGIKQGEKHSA

[7] = molecular target: T7, selected panels of kinases in HeLa and PC3 cell lysates (Homo sapiens, UniProt Q00536); conditions: 10 uM; PCTAIRE1; peptide LTDNLVALkEIR; proteome PC3; labeling site Lys1
T7 construct: endogenous in cells; host or cells: HeLa and PC3 cell lysates

[8] = molecular target: T8, selected panels of kinases in HeLa and PC3 cell lysates (Homo sapiens, UniProt Q04912); conditions: 10 uM; RON; peptide IQCAIkSLSR; proteome PC3; labeling site Lys1
T8 construct: endogenous in cells; host or cells: HeLa and PC3 cell lysates

[9] = molecular target: T9, selected panels of kinases in HeLa and PC3 cell lysates (Homo sapiens, UniProt Q09013); conditions: 10 uM; proteome HEL; peptide DIkPDNILLDR; labeling site Lys2
T9 construct: endogenous in cells; host or cells: HeLa and PC3 cell lysates

[10] = molecular target: T10, selected panels of kinases in HeLa and PC3 cell lysates (Homo sapiens, UniProt Q13164); conditions: for ERK5 target occupancy (KiNativ): 10 μM, HeLa and PC3 cell lysates, only ERK5 exceeded this level; for % Inhibiton, Erk5: 10 uM, proteome HEL, peptide DLk[…], labeling site Lys2
T10 construct: endogenous in cells; host or cells: HeLa and PC3 cell lysates
T10 sequence (Q13164 whole entry): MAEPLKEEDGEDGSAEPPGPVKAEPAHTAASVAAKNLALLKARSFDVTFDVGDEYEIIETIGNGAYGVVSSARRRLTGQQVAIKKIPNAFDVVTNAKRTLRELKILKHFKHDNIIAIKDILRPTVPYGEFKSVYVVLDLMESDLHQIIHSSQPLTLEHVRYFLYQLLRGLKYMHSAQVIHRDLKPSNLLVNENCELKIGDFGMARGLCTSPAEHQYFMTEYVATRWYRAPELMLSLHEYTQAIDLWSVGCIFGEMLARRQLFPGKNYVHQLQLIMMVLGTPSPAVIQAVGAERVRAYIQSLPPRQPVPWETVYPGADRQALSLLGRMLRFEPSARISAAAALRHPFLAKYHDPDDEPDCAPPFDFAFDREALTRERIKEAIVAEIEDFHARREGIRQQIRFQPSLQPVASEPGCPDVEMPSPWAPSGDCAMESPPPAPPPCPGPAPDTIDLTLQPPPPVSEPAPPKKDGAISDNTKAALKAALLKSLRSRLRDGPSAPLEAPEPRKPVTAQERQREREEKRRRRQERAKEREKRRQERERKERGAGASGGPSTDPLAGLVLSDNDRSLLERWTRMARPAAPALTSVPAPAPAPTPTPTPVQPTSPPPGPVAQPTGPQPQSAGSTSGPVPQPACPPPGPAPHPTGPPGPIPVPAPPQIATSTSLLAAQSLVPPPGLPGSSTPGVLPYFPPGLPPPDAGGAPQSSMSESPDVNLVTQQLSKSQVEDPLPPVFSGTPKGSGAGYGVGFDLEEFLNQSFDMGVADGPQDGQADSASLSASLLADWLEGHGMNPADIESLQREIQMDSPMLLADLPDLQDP

[11] = molecular target: T11, selected panels of kinases in HeLa and PC3 cell lysates (Homo sapiens, UniProt Q16512); conditions: 10 uM; PKN1; peptide GHFGk[…]; proteome HEL; labeling site Lys1
T11 construct: endogenous in cells; host or cells: HeLa and PC3 cell lysates
T11 sequence (Q16512 whole entry): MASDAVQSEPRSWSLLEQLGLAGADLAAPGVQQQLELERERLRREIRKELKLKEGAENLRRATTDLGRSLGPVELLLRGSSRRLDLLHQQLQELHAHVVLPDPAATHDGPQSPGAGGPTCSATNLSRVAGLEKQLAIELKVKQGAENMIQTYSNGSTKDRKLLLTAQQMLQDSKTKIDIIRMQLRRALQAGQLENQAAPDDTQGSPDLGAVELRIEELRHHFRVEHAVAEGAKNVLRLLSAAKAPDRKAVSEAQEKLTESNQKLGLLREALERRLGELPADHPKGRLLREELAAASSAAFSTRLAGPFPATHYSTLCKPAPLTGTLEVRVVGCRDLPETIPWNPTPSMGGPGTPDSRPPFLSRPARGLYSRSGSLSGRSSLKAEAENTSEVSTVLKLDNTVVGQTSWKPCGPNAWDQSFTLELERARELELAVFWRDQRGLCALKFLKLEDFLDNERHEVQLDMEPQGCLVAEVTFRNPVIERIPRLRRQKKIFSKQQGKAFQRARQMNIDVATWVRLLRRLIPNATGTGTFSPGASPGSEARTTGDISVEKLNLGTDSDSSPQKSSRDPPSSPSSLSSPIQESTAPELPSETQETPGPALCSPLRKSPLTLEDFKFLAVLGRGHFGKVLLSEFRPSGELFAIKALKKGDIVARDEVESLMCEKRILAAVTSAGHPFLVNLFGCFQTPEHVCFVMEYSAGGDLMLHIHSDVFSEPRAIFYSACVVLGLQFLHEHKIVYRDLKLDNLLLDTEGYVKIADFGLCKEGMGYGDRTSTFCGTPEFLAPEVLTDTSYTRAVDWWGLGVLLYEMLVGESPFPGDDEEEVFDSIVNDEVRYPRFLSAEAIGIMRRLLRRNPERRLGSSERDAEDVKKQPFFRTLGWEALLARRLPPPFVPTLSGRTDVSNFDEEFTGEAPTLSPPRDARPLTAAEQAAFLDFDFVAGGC

[12] = molecular target: T12, selected panels of kinases in HeLa and PC3 cell lysates (Homo sapiens, UniProt Q53H12); conditions: 10 uM; proteome PC3; peptide […]kGK; labeling site ATP
T12 construct: endogenous in cells; host or cells: HeLa and PC3 cell lysates
T12 sequence (Q53H12 whole entry): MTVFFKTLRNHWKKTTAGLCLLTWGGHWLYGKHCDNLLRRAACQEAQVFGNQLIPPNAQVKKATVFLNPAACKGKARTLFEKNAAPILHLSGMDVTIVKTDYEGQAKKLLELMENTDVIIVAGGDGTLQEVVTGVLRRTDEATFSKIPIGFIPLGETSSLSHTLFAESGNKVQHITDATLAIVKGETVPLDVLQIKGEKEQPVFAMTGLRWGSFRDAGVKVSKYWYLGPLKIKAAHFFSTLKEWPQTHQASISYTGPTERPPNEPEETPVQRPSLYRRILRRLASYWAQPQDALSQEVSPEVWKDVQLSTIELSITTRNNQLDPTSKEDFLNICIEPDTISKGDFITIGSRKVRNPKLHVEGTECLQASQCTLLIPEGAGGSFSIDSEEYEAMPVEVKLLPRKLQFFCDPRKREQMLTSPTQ

[13] = molecular target: T13, selected panels of kinases in HeLa and PC3 cell lysates (Homo sapiens, UniProt Q86UE8); conditions: 10 uM; TLK2; peptide YVAVkIHQLNK; proteome PC3; labeling site Lys1
T13 construct: endogenous in cells; host or cells: HeLa and PC3 cell lysates

[14] = molecular target: T14, selected panels of kinases in HeLa and PC3 cell lysates (Homo sapiens, UniProt Q8TBX8); conditions: 10 uM, PIP4K2C, labeling site ATP
T14 construct: endogenous in cells; host or cells: HeLa and PC3 cell lysates
T14 sequence (Q8TBX8 1-421): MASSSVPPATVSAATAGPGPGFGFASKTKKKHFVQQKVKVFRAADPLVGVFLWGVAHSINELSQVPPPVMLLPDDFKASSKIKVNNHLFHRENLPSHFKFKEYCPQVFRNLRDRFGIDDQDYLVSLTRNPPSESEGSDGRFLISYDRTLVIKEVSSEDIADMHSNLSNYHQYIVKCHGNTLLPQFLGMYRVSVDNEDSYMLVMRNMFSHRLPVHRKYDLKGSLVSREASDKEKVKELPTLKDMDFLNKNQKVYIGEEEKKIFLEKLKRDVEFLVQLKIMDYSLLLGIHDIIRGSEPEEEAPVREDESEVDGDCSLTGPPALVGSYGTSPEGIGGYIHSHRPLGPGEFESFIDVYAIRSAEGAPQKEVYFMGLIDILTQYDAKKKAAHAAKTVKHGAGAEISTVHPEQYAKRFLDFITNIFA

[15] = molecular target: T15, selected panels of kinases in HeLa and PC3 cell lysates (Homo sapiens, UniProt Q96PY6); conditions: 10 uM; proteome HEL; peptide DIkSQNIFLTK; labeling site Lys2
T15 construct: endogenous in cells; host or cells: HeLa and PC3 cell lysates

[16] = molecular target: T16, selected panels of kinases in HeLa and PC3 cell lysates (Homo sapiens, UniProt Q96Q15); conditions: 10 uM; SMG1; peptide […]kTKPK; proteome HEL; labeling site ATP
T16 construct: endogenous in cells; host or cells: HeLa and PC3 cell lysates

[17] = molecular target: T17, selected panels of kinases in HeLa and PC3 cell lysates (Homo sapiens, UniProt Q9NRM7); conditions: 10 uM; proteome HEL; peptide VDTHALYAMkTLR; labeling site Lys1
T17 construct: endogenous in cells; host or cells: HeLa and PC3 cell lysates
T17 sequence (Q9NRM7 whole entry): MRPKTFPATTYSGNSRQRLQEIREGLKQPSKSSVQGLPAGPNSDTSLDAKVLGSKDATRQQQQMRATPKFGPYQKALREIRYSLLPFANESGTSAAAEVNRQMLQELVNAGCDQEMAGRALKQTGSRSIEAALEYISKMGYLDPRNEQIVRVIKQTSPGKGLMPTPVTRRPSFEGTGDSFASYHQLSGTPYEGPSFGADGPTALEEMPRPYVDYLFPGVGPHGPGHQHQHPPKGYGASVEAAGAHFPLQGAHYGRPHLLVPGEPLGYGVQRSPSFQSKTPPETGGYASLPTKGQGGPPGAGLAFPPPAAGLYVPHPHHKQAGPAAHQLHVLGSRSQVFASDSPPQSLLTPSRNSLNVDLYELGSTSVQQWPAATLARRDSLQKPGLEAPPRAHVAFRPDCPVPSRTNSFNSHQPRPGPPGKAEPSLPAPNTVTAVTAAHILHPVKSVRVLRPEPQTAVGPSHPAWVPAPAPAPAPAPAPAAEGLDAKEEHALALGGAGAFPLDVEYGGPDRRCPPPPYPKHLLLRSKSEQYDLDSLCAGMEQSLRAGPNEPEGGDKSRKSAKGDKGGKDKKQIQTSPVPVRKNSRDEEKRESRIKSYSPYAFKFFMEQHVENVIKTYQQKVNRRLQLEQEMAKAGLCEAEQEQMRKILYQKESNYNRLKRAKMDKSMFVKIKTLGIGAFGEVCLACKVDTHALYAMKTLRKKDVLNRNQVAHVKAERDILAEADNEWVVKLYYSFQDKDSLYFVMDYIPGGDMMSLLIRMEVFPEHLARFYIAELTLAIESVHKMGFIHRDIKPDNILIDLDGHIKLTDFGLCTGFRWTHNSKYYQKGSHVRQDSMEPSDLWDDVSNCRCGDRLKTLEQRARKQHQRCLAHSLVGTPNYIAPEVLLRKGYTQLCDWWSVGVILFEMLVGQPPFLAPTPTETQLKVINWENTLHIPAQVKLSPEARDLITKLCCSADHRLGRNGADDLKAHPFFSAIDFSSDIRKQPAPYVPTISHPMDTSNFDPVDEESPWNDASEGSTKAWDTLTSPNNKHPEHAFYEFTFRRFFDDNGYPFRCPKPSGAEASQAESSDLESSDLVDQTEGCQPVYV

[18] = molecular target: T18, selected panels of kinases in HeLa and PC3 cell lysates (Homo sapiens, UniProt Q9UHD2); conditions: 10 uM; TBK1; peptide TGDLFAIk[…]; proteome HEL; labeling site Lys1
T18 construct: endogenous in cells; host or cells: HeLa and PC3 cell lysates

[19] = peptide ELPTLkDMDFLNK, proteome PC3

## CCOc1cc(C(=O)N2CCC(N3CCN(C)CC3)CC2)ccc1Nc1ncc2c(n1)N(C1CCCC1)c1ccccc1C(=O)N2C [Compound 26]
[1]
  % Inhibiton, JAK2 domain2: 6.5%
[2]
  % Inhibition PFTAIRE1: -14.3%
[3]
  % Inhibiton, ANPb: 24.3%
[4]
  % Inhibition PITSLRE: 3.5%
[5]
  % Inhibition TEC: 5.8%
[6]
  % Inhibition PIK3CG: 45.3%
[7]
  % Inhibition PCTAIRE1: -26.9%
[8]
  % Inhibition RON: 11.1%
[9]
  % Inhibiton, DMPK1: 29.4%
[10]
  ERK5 target occupancy (KiNativ): higher than 90%
  % Inhibiton, Erk5: 94.3%
[11]
  % Inhibition PKN1: 15.3%
[12]
  % Inhibiton, AGK: 15.3%
[13]
  % Inhibition TLK2: -11.7%
[14]; [19]
  % Inhibition PIP4K2C: -6.2%
[14]; peptide TLVIk[…], proteome HEL
  % Inhibition PIP4K2C: 4.7%
[14]; peptide TLVIk[…], proteome PC3
  % Inhibition PIP4K2C: -5.8%
[15]
  % Inhibiton, NEK1: 3%
[16]
  % Inhibition SMG1: -4.8%
[17]
  % Inhibiton, LATS2: 3.2%
[18]
  % Inhibition TBK1: ~57.6%

## COc1cc(C(=O)N2CCC(N3CCN(C)CC3)CC2)ccc1Nc1ncc2c(n1)N(C1CCCC1)c1ccccc1C(=O)N2C [Compound 25, 11-cyclopentyl-2-((2-methoxy-4-(4-(4-methylpiperazin-1-yl)piperidine-1-carbonyl)phenyl)amino)-5-methyl-5H-benzo[e]pyrimido[5,4-b][1,4]diazepin-6(11H)-one]
[1]
  % Inhibiton, JAK2 domain2: -9.0%
[2]
  % Inhibition PFTAIRE1: -9.7%
[3]
  % Inhibiton, ANPb: -11.4%
[4]
  % Inhibition PITSLRE: 5.1%
[5]
  % Inhibition TEC: 8.9%
[6]
  % Inhibition PIK3CG: 11.8%
[7]
  % Inhibition PCTAIRE1: -25.8%
[8]
  % Inhibition RON: -17.5%
[9]
  % Inhibiton, DMPK1: 10.0%
[10]
  ERK5 target occupancy (KiNativ): higher than 90%
  % Inhibiton, Erk5: >95%
[11]
  % Inhibition PKN1: -2.7%
[12]
  % Inhibiton, AGK: 1.8%
[13]
  % Inhibition TLK2: -3.6%
[14]; [19]
  % Inhibition PIP4K2C: 21.5%
[14]; peptide TLVIk[…], proteome HEL
  % Inhibition PIP4K2C: 9.5%
[14]; peptide TLVIk[…], proteome PC3
  % Inhibition PIP4K2C: -0.123%
[15]
  % Inhibiton, NEK1: 14.7%
[16]
  % Inhibition SMG1: -21.0%
[17]
  % Inhibiton, LATS2: -4.2%
[18]
  % Inhibition TBK1: -96.8%
